Results taken from article PMC9130538, “Amino acids in transmembrane helix 1 confer major functional differences between human and mouse orthologs of the polyspecific membrane transporter OCT1” (The Journal of Biological Chemistry, 2022).
Entries after “also recorded” stand apart in the source; their conditions may differ. Read-outs that look alike come from different tables or passages of the source.

How the values were obtained:
human OCT1 [1] = biological target: T1, human OCT1 (Homo sapiens, UniProt O15245); parameters: expressed in transfected cells; method as in PMID 33037045, PMID 34040533; details: HEK293 stably transfected, 2 min, data previously published, ref [34], [35], cited from earlier work; for Km: read-out: KM ± SD, hOCT1
T1 sequence (O15245 1-554): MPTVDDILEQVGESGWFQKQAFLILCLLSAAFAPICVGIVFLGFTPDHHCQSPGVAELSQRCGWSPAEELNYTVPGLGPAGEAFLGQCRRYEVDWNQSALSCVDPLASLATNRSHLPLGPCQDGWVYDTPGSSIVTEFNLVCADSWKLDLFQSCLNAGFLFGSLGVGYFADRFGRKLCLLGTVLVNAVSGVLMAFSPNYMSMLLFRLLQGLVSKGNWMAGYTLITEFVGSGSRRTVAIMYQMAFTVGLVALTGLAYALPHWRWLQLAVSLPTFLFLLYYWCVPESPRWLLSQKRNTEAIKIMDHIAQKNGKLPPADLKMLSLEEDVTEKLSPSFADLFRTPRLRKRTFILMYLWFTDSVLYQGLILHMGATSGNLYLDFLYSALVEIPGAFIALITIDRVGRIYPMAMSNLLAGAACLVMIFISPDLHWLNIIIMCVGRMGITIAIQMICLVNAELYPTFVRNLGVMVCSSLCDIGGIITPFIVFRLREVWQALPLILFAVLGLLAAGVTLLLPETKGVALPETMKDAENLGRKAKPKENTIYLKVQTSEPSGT

mouse Oct1 [2] = biological target: T2, mouse Oct1 (Mus musculus, UniProt O08966); parameters: expressed in transfected cells; method as in PMID 33037045, PMID 34040533; details: HEK293 stably transfected, 2 min, data previously published, ref [34], [35], cited from earlier work; for Km: read-out: KM ± SD, mOct1
T2 sequence (O08966 1-556): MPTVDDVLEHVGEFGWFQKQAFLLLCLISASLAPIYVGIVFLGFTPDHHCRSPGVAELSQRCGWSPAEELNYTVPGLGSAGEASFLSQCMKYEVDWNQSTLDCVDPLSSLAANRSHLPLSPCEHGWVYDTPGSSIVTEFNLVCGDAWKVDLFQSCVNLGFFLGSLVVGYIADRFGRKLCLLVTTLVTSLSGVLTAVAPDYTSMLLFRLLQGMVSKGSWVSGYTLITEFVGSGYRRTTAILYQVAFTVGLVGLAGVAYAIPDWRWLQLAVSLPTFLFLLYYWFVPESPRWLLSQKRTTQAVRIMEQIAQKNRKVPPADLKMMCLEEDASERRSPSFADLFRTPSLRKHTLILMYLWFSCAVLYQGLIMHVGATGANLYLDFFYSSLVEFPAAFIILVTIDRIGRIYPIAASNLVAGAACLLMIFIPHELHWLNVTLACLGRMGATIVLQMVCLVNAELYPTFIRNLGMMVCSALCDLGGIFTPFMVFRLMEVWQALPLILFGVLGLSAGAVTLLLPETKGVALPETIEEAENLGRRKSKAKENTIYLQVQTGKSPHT

human OCT1 [3] = biological target: T1, human OCT1; experiment: Cellular uptake by HEK293 cells overexpressing human OCT1 (wildtype); details: for transport by human OCT1 (saturability): concentration-dependent uptake, stably transfected HEK293, 2 min
Protocol: (§1) Generation and characterization of these cell lines has been described in detail before ([34], [48], [49]). Cells were cultured in Dulbecco’s Modified Eagle’s Medium supplemented with 10% fetal bovine serum, 100 U/ml penicillin, and 100 μg/ml streptomycin at 37 °C and 5% CO2 and were passaged twice a week.
(§2) At 48 h prior to the experiment, 6 × 10^5 cells were seeded per well in 12-well plates. When using transiently transfected cells, 5 × 10^5 T-REx-293 cells (Life Technologies) were seeded per well in 12-well plates 72 h prior to the experiment, and they were transfected 24 h later as described previously. Twelve-well plates were precoated with poly-D-lysine.
(§3) Cellular uptake experiments were performed at 37 °C and pH 7.4 using HBSS supplemented with 10 mM Hepes (in the following referred to as HBSS+). Cells were washed with 1 ml prewarmed (37 °C) HBSS+, and the uptake was initiated by adding 400 μl of prewarmed HBSS+ containing the substrate. Uptake was allowed for exactly 2 min and afterward stopped by adding 2 ml ice-cold HBSS+. Cells were washed twice with 2 ml ice-cold HBSS+ and lysed with 80% acetonitrile supplemented with internal standard, 0.1 N NaOH/0.1% SDS, or radioimmunoprecipitation buffer for LC–MS/MS, liquid scintillation counting, or fluorescence spectroscopy detection, respectively. Intracellular substrate concentrations were measured as described in the following and were then normalized to the amount of total protein in the samples as measured using the bicinchoninic acid assay ([51]).
(§4) For LC–MS/MS quantification of intracellular substrate concentrations, the cell lysate was centrifuged at 16,000g for 15 min, and 350 μl of supernatant was evaporated to dryness under nitrogen flow at 40 °C. The sample was reconstituted with 200 μl 0.1% formic acid, and between 2 and 30 μl were injected into the LC–MS/MS system (Table S1).
(§5) An API4000 QTRAP tandem mass spectrometer with ESI interface (AB SCIEX) was used, coupled to a Shimadzu Nexera X2 UHPLC system with LC 30AD pumps and SiL 30AC autosampler (Shimadzu).
(§6) Intracellular concentrations of radioactively labeled substrates MPP^+ and TEA^+ were quantified using liquid scintillation counting. To this end, 400 μl cell lysate was transferred into a 20 ml scintillation vial, 9 ml Aquasafe 500 Plus liquid scintillator (both Zinsser Analytics) was added, and the sample was measured in the Scintillation Counter LS6500 (Beckman Coulter).
(§7) For both analyses, SPSS Statistics, version 28 (SPSS, Inc, IBM) was used.

mouse Oct1 [4] = biological target: T2, mouse Oct1; experiment: Cellular uptake by HEK293 cells overexpressing mouse Oct1 (wildtype)
Protocol: as §1, §2, §3, §4, §5, §6, §7

[5] = HEK293 stably transfected, 2 min uptake, 37 °C, pH 7.4, OCT1-mediated uptake
[6] = human versus mouse OCT1, stably transfected HEK293
[7] = ASP^+ by fluorescence spectroscopy, HEK293 stably transfected, 2 min
[8] = read-out: KM ± SD, hOCT1, HEK293 stably transfected, 2 min uptake, 37 °C, pH 7.4

Cc1ncc(C[n+]2csc(CCO)c2C)c(N)n1 [Thiamine]
vmax ± SD, hOCT1 (human OCT1 [1]): 8261 ± 3720 pmol × min^−1 × mg protein^−1 | Km (human OCT1 [1]): 1060 ± 341 µM | vmax ± SD, mOct1 (mouse Oct1 [2]): 3712 ± 1031 pmol × min^−1 × mg protein^−1 | Km (mouse Oct1 [2]): 143 ± 96.3 µM

NC[C@H](O)c1ccc(O)c(O)c1 [Noradrenaline]
transport by human OCT1 (saturability) (human OCT1 [3]): lacked any saturable transport

C[N@+]1(CC2CC2)CC[C@]23c4c5ccc(O)c4O[C@H]2C(=O)CC[C@@]3(O)[C@H]1C5 [Methylnaltrexone]
vmax ± SD, mOct1 (mouse Oct1 [4]; [5]): 414 ± 130 pmol × min^−1 × mg protein^−1

C[N+](C)(C)CCO [Choline]
transport by human OCT1 (saturability) (human OCT1 [3]): lacked any saturable transport; also recorded: not transported at all

[H]/N=C(/N)N/C(=N/[H])NCCc1ccccc1 [Phenformin]
CLint ± SD, mOct1 (mouse Oct1 [4]; mouse, pH 7.4): 143 ± 26.2 μl × min^−1 × mg protein^−1 | CLint ± SD, hOCT1 (human OCT1 [3]; human, pH 7.4): 106 ± 22.8 μl × min^−1 × mg protein^−1

CC[N+](CC)(CC)CC [TEA^+, tetraethylammonium]
CLint ± SD, mOct1 (mouse Oct1 [4]): 27.6 ± 9.72 μl × min^−1 × mg protein^−1 | Km (mouse Oct1 [4]; pH 7.4): 305 ± 141 µM | vmax ± SD, mOct1 (mouse Oct1 [4]; pH 7.4): 7764 ± 2883 pmol × min^−1 × mg protein^−1 | CLint ± SD, hOCT1 (human OCT1 [3]): 6.31 ± 2.45 μl × min^−1 × mg protein^−1 | Km (human OCT1 [3]; pH 7.4): 749 ± 438 µM | vmax ± SD, hOCT1 (human OCT1 [3]; pH 7.4): 4207 ± 1511 pmol × min^−1 × mg protein^−1

CC(C)NCC(O)c1cc(O)cc(O)c1 (centres unmarked) [Orciprenaline]
fold lower affinity (KM) of human OCT1 than mouse Oct1 (higher affinity of mouse Oct1) (human OCT1 [3]; [6]): more than sixfold higher affinity of mouse Oct1

CC(NCCc1ccc(O)cc1)C(O)c1ccc(O)cc1 (centres unmarked) [Ritodrine]
fold higher affinity (KM) of human than of mouse OCT1 (human OCT1 [3]; [6]): ~10 fold

CN(C)c1ccc(C=Cc2cc[n+](C)cc2)cc1 [ASP^+, 4-(4-(dimethylamino)styryl)-N-methylpyridinium]
vmax ± SD, mOct1 (mouse Oct1 [4]; [7]): 53,802 ± 7155 RFU × min^−1 × mg protein^−1 | Km (mouse Oct1 [4]; read-out: KM ± SD, mOct1, HEK293 stably transfected, 2 min uptake, 37 °C, pH 7.4): 12.8 ± 2.97 µM | vmax ± SD, hOCT1 (human OCT1 [3]; [7]): 361,671 ± 2974 RFU × min^−1 × mg protein^−1 | Km (human OCT1 [3]; [8]): 63 ± 15.3 µM

C[n+]1ccc(-c2ccccc2)cc1 [MPP^+, 1-methyl-4-phenylpyridinium]
CLint ± SD, mOct1 (mouse Oct1 [4]): 80.8 ± 12.1 μl × min^−1 × mg protein^−1 | Km (mouse Oct1 [4]; pH 7.4): 24.4 ± 7.95 µM | vmax ± SD, mOct1 (mouse Oct1 [4]; pH 7.4): 1910 ± 450 pmol × min^−1 × mg protein^−1 | vmax ± SD, hOCT1 (human OCT1 [3]; [5]): 3112 ± 419 pmol × min^−1 × mg protein^−1 | Km (human OCT1 [3]; [8]): 71.1 ± 17.3 µM

CC(CCc1ccc(O)cc1)NCC(O)c1ccc(O)cc1 (centres unmarked) [Ractopamine]
fold higher affinity (KM) of human than of mouse OCT1 (human OCT1 [3]; [6]): comparable between human and mouse OCT1

COc1ccc(CC(C)NCC(O)c2ccc(O)c(NC=O)c2)cc1 (centres unmarked) [Formoterol]
vmax ± SD, mOct1 (mouse Oct1 [4]; [5]): 1458 ± 317 pmol × min^−1 × mg protein^−1 | vmax ± SD, hOCT1 (human OCT1 [3]; [5]): 434 ± 111 pmol × min^−1 × mg protein^−1

C[N+]1(C)[C@@H]2C[C@@H](OC(=O)C(O)(c3cccs3)c3cccs3)C[C@H]1[C@@H]1O[C@@H]12 [Tiotropium]
Km (mouse Oct1 [4]; mouse, pH 7.4): 1.47 ± 0.12 µM | vmax ± SD, mOct1 (mouse Oct1 [4]; pH 7.4): 285 ± 87.1 pmol × min^−1 × mg protein^−1 | Km (human OCT1 [3]; human, pH 7.4): 7.82 ± 1.77 µM | vmax ± SD, hOCT1 (human OCT1 [3]; pH 7.4): 836 ± 322 pmol × min^−1 × mg protein^−1

CC(C)C(=O)O[C@H](CC(=O)[O-])C[N+](C)(C)C [IBC, isobutyryl-L-carnitine]
vmax ± SD, mOct1 (mouse Oct1 [2]): 8366 ± 1705 pmol × min^−1 × mg protein^−1 | Km (mouse Oct1 [2]): 1380 ± 356 µM | transport by human OCT1 (saturability) (human OCT1 [3]): not transported at all | transport by human OCT1 (saturability) (human OCT1 [3]; listed as isobutyryl-L-carnitine (IBC)): lacked any saturable transport

CN(C)C(=N)N=C(N)N [Metformin]
vmax ± SD, hOCT1 (human OCT1 [1]): 14,703 ± 4346 pmol × min^−1 × mg protein^−1 | Km (human OCT1 [1]): 2200 ± 1150 µM | vmax ± SD, mOct1 (mouse Oct1 [2]): 17,496 ± 7097 pmol × min^−1 × mg protein^−1 | Km (mouse Oct1 [2]): 491 ± 155 µM
